Where no end group is shown, it is not given here.

One experiment deals with the other TFF mutants. Put plainly: ITC of GlcNAc-α-1,4-Gal against the other TFF mutants. Type of experiment: binding, human. How it is done:
(§1) All TFF and ligand stock solutions were prepared in the same buffer (50 mM HEPES, 50 mM NaCl, pH 7.4) and filtered (0.22 µm) just prior to titration. All control and non-binding ligand experiments were performed as 12 × 3.18 µl injections. For experiments with GlcNAc-α-1,4-Gal (Carbosynth), 25 × 1.58 µl injections were used. All runs were performed at 25 °C in a MicroCal iTC200 (Malvern).
(§2) Supplementary Figure 1: ITC controls and negative results. Top row: Ligand into buffer and
(§3) buffer into protein controls for Figure 1D. Bottom row: ITC data for TFF mutants.
(§4) (1 picture or pasted object on this page, not shown here)

The next experiment has as its target T1, TFF2 (human TFF2) (Homo sapiens, UniProt Q03403, N38Q).
T1 construct: with an N-terminal gp67 signal peptide and a C-terminal His10-tag; gp67 signal peptide (N, cleaved yes); made in house; host or cells: Sf21 insect cells (baculovirus), secreted
T1 sequence (Q03403 24-129 N38Q): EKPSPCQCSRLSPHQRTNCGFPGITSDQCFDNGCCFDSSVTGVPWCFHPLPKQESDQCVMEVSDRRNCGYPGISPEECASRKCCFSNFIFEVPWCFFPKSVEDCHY
Put plainly: Isothermal titration calorimetry of glycans against TFF2. Type of experiment: binding. The procedure:
as §1
(§5) Supplementary Table 2: Parameters used for ITC and thermodynamic terms determined for
(§6) GlcNAc-α-1,4-Gal binding to the TFFs. Data are presented as mean values ±SD for three
(§7) Protein GlcNAc-α- T n Kd ΔH ΔS -TΔS ΔG
(§8) (30 µM) 1,4-Gal (µM) (℃) (µM) (kcal · mol-1) (cal · mol-1 · K-1) (kcal · mol-1) (kcal · mol-1)
(In general: Isothermal titration calorimetry measures the heat released or taken up as one component is titrated into another.)

Another experiment has as its target T2, dTFF1bio-N14A (Homo sapiens, UniProt P04155, N40A).
T2 construct: […]; made in house; host or cells: E. coli SHuffle T7; dimerised with K3Fe(CN)6
T2 sequence (P04155 25-84 N40A): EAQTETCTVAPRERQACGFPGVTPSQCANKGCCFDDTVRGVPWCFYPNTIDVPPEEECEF
The experiment is described as follows: ITC of GlcNAc-α-1,4-Gal against dTFF1bio-N14A. As to conditions: mutant dTFF1bio-N14A. Type of experiment: binding. How it is done: as §1, §2, §3, §4

In experiment [1] the target is T3, mTFF1 (human TFF1, monomeric) (Homo sapiens, UniProt P04155).
T3 construct: PelB signal peptide (N, cleaved yes); His6 (C, cleaved yes); made in house; host or cells: E. coli T7 Express, periplasmic extraction
T3 sequence (P04155 with tags, fused parts or gaps): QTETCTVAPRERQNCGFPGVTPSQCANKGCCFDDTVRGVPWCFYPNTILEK
The experiment is described as follows: Isothermal titration calorimetry of glycans against mTFF1. Type of experiment: binding. As to conditions: 25 °C. How it is done:
as §1, §5, §6, §7, §8

The target of a further experiment is T4, mTFF3 (Homo sapiens, UniProt Q07654, C78S).
T4 construct: with an N-terminal PelB signal peptide, no interchain Cys, and a C-terminal His6-tag; PelB signal peptide (N, cleaved yes); His6 (C, cleaved yes); made in house; host or cells: E. coli T7 Express, periplasmic extraction
T4 sequence (Q07654 22-80 C78S): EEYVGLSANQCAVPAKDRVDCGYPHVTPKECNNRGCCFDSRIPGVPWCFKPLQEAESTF
Put plainly: Tryptophan fluorescence quenching assay, mTFF3. Type of experiment: binding. The procedure:
(§9) Tryptophan fluorescence quenching assays were performed at 25 °C on an EnVision 2105 Multimode Plate Reader (PerkinElmer) with excitation at 280 nm and emission measured at 340 nm. The assay was performed in a 384-well plate (Corning, low volume black round bottom polystyrene non-binding surface) using 15 µl per well. Each sample contained mTFF1 or mTFF3 (5 µM) and GlcNAc-α-1,4-Gal (1 µM–4.1 mM) in 50 mM BTP/citric acid, 25 mM NaCl, at either pH 2.6, 5.0, or 7.4. For each ligand dilution series, Kd was calculated by fitting the data to a one-site binding curve using Prism 8 (GraphPad) and the mean calculated from three independent experiments.

Experiment [2] addresses T5, mTFF3 (human TFF3, monomeric) (Homo sapiens, UniProt Q07654, C78S).
T5 construct: with an N-terminal PelB signal peptide, no interchain Cys, and a C-terminal His6-tag; PelB signal peptide (N, cleaved yes); His6 (C, cleaved yes); made in house; host or cells: E. coli T7 Express, periplasmic extraction
T5 sequence (Q07654 22-80 C78S): T4 sequence (Q07654 22-80 C78S)
The experiment is described as follows: Isothermal titration calorimetry of glycans against mTFF3. Type of experiment: binding. The procedure: as §1, §5, §6, §7, §8

For the next experiment, the target named is T6, mTFF1 (Homo sapiens, UniProt P04155).
T6 construct: PelB signal peptide (N, cleaved yes); His6 (C, cleaved yes); made in house; host or cells: E. coli T7 Express, periplasmic extraction
T6 sequence (P04155 29-72 limits assumed): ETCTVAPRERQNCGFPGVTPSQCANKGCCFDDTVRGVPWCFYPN
The experiment is described as follows: Tryptophan fluorescence quenching assay, mTFF1. Type of experiment: binding. How it is done:
as §9

Another experiment addresses all TFFs. Put plainly: Dissociation constant of TFF-disaccharide complexes, summary of orthogonal techniques. Conditions: physiological pH, approximate. Type of experiment: binding, human. How it is done:
as §1, §9

Experiment [3] addresses bacterial carbohydrate-binding module family 32 protein (CBM32). As to conditions: CBM32 binding GlcNAc-α-1,4-Gal; cited from earlier work.
Another experiment relates to pMucin. Put plainly: Mucin agglutination assay. Type of experiment: biochemical, porcine. Conditions: pMucin 0.02% w/v, 405 nm, 25 °C. The procedure:
Mucin agglutination assays were performed at 25 °C on an EnVision 2105 Multimode Plate Reader (PerkinElmer) to monitor transmission at 405 nm over time. The assay was performed in a 96-well plate (Corning, polystyrene flat bottom clear) with 50 µl per well. pMucin concentration was kept consistent at 0.02% w/v and TFF concentration varied (0, 1, 2, 4, 8, 16 or 32 µM). The resulting curves were normalised to percent decrease in signal, averaged over three replicates and plotted using Prism 8 (GraphPad).

Broadly, the Kd is the constant that tells how readily two partners part at equilibrium. As to `CC(=O)N[C@H]1[C@@H](O[C@@H]2[C@H](O)[C@@H](O)C(O)O[C@@H]2CO)O[C@H](CO)[C@@H](O)[C@@H]1O` (stereo partly drawn) [GlcNAc-α-1,4-Gal], the “binding by ITC” value in the experiment with the other TFF mutants is recorded as “unable to detect any binding”; at dTFF1bio-N14A, “unable to detect any binding”; at dTFF1bio-N14A (listed as GlcNAc-a-1,4-Gal) it was “could not detect any residual binding”. The Kd was determined as 44 ± 8 µM on TFF2 (human TFF2); 49 ± 4 µM in [1] (ITC, 50 mM HEPES, 50 mM NaCl, pH 7.4, protein 30 µM); 350 ± 60 µM at mTFF3 (pH 2.6, 25 °C); 58 ± 1 µM at mTFF3 (pH 7.4, 25 °C); 65 ± 5 µM in experiment [2]; 67 ± 1 µM at mTFF1 (pH 2.6, 25 °C). Also, the Kd on mTFF1 (pH 7.4, 25 °C) was 37 ± 2 µM; at all TFFs it was about 50 µM; in experiment [3], 72 µM. The n at TFF2 (human TFF2) (ITC stoichiometry, 25 °C) turned out to be 0.7 ± 0.3; in experiment [1] (ITC stoichiometry), 1.0 ± 0.2; in [2] (ITC stoichiometry, 25 °C), 1.0 ± 0.1. The “-TΔS” value worked out at 20 ± 10 kcal/mol on TFF2 (human TFF2) (ITC, 25 °C); 4 ± 2 kcal/mol in experiment [1] (ITC); 5.0 ± 0.5 kcal/mol in experiment [2] (ITC, 25 °C). The ΔG on TFF2 (human TFF2) (ITC, 25 °C) was -6.2 ± 0.2 kcal/mol; in experiment [1] (ITC) it was -5.97 ± 0.03 kcal/mol; in [2] (ITC, 25 °C), -5.83 ± 0.05 kcal/mol. Moreover, the ΔH on TFF2 (human TFF2) (ITC, 25 °C) was -20 ± 10 kcal/mol; in experiment [1] (ITC) it was -10 ± 2 kcal/mol; in experiment [2] (ITC, 25 °C) it was -10.8 ± 0.5 kcal/mol. Moreover, the ΔS at TFF2 (human TFF2) (ITC, 25 °C) is reported as -60 ± 40 cal · mol-1 · K-1; in [1] (ITC), -14 ± 5 cal · mol-1 · K-1; in [2] (ITC, 25 °C) it was -17 ± 2 cal · mol-1 · K-1. The “Kd at pH 2.6 relative to pH 7.4” value at mTFF3 (mTFF3) is reported as “six-fold higher”.

Turning to “Dimeric TFF1: dimeric wild-type TFF1 construct used in the pMucin agglutination assay ({Avi‑tag(biotin)}-EAQTETCTVAPRERQNCGFPGVTPSQCANKGCCFDDTVRGVPWCFYPNTIDVPPEEECEF; also: homodimer via interchain disulfide, Cys not given here)”, the “lowest concentration inducing dose-dependent increase in light scattering over time” value in the experiment on pMucin is reported as 4 µM.

Turning to “Dimeric TFF3: dimeric wild-type TFF3 construct used in the pMucin agglutination assay ({Avi‑tag(biotin)}-EEYVGLSANQCAVPAKDRVDCGYPHVTPKECNNRGCCFDSRIPGVPWCFKPLQEAECTF; also: homodimer via interchain disulfide, Cys not given here)”, the “lowest concentration inducing dose-dependent increase in light scattering over time” value in the experiment with pMucin stood at 4 µM.
